Where no end group is shown, it is not given here.
Tests used:
plasma corticosterone = assay: Plasma corticosterone levels in the Saelens precipitated withdrawal model, Protocol B (Example 3); type: in vivo, mouse; details: morphine-treated mice, naloxone-precipitated withdrawal; for plasma corticosterone levels: TCAP-1 250 nmole/kg vs. CP154,526 5, 20, 50 mg/kg
Procedure: Two hours after the 11 a.m. injections, at 1 p.m., all mice received an intraperitoneal (“i.p.”) injection of Naloxone 2.5 mg/kg), baseline blood samples were taken and then they were immediately placed individually in an observation area and video recorded 20 minutes. The number of jumps (lifting of all feet off the ground) were recorded for 20 minutes. A second set of blood samples were taken post-jumps (about 30 minutes after the naloxone administration.
The same protocol as in Protocol A was followed with the exception that on day 2, there were three Group 3 mice (10 per group) which were administered: 5 mg/kg, 20 mg/kg or 50 mg/kg of the CRH antagonist CP154,526.

Swiss Webster mice [1] = assay: Saelens drug-precipitated withdrawal in the mouse, TCAP-1 pre-morphine (Example 1); type: in vivo
Swiss Webster mice [2] = assay: Saelens precipitated withdrawal test, CRH antagonist vs. TCAP-1, Protocol A (Example 3); type: in vivo, mouse; details: TCAP-1 250 nmole/kg per time point vs. CRH antagonist 20 mg/kg per time point; morphine-treated mice; naloxone 2.5 mg/kg i.p.
Swiss Webster mice [3] = assay: Saelens precipitated withdrawal test, CRH antagonist dose response vs. TCAP-1, Protocol B, jumps (Example 3); type: in vivo, mouse; details: TCAP-1 250 nmole/kg vs. CP154,526 5, 20, 50 mg/kg; morphine-treated mice; naloxone 2.5 mg/kg i.p.
Swiss Webster mice [4] = assay: Saelens precipitated withdrawal test, single dose TCAP-1 post-morphine (Example 2); type: in vivo, mouse; details: Group 4: TCAP-1 500 nmole/kg s.c. single dose post-morphine; naloxone 10 mg/kg i.p.

Compound	plasma corticosterone levels (plasma corticosterone)	dose needed to approach TCAP-1 250 nmole/kg effect on corticosterone levels (plasma corticosterone)	Mean # Jumps over 20 Minutes (Swiss Webster mice [1]; Group 8: saline days 1-3, saline day 4-5, MK801 on day 5, no morphine, no naloxone, n = 4)	Mean # Jumps over 20 Minutes (Swiss Webster mice [1]; TCAP-1 10 nmole/kg s.c. days 1-3, morphine 32 mg/kg i.p. days 4-5, naloxone 10 mg/kg i.p., n = 3)	Mean # Jumps over 20 Minutes (Swiss Webster mice [1]; TCAP-1 25 nmole/kg s.c. days 1-3, morphine 32 mg/kg i.p. days 4-5, naloxone 10 mg/kg i.p., n = 9)	Mean # Jumps over 20 Minutes (Swiss Webster mice [1]; TCAP-1 50 nmole/kg s.c. days 1-3, morphine 32 mg/kg i.p. days 4-5, naloxone 10 mg/kg i.p., n = 9)	Mean # Jumps over 20 Minutes (Swiss Webster mice [1]; TCAP-1 100 nmole/kg s.c. days 1-3, morphine 32 mg/kg i.p. days 4-5, naloxone 10 mg/kg i.p., n = 9)	Mean # Jumps over 20 Minutes (Swiss Webster mice [1]; TCAP-1 250 nmole/kg s.c. days 1-3, morphine 32 mg/kg i.p. days 4-5, naloxone 10 mg/kg i.p., n = 9)	jump rate after naloxone-precipitated morphine withdrawal (Swiss Webster mice [1]; TCAP-1 10-250 nmole/kg pre-morphine vs. morphine alone)	number of jumps/20 minutes after naloxone (Swiss Webster mice [2])	number of jumps/20 minutes (Swiss Webster mice [3])	number of jumps in 20 minutes after naloxone (Swiss Webster mice [4])
CCCCN(CC)c1nc(C)nc2c1c(C)cn2-c1c(C)cc(C)cc1C [CP154,526]	still had an effect	at least 50 mg/kg										
C[C@]12N[C@H](Cc3ccccc31)c1ccccc12 [MK801, reference compound]			0									
Teneurin C-Terminal Associated Peptide-1 (QQLLGTGRVQGYDGYFVLSVEQYLELSDSANNIHFMRQSEI-NH2) [TCAP-1, mouse TCAP-1 in some experiments]	more effective in reducing plasma corticosterone levels in the mice at lower dosage levels			47	47	42	32	16	reduced jump rates in a dose dependent manner	much more effective and at lower dosages in significantly lowering the number of jumps	more effective in reducing the number of jumps/20 minutes	significantly reduced the number of jumps

From patent publication US20220062380A1 (priority 2018, published 2022)
